Assay results from patent US4064255A, “Compositions containing new indole derivatives and their use in pharmacology” (Mar-Pha Societe d'Etudes et d'Exploitation de Marques, priority 1975, dated 1977).
pIC50: −log10 of the molar value. Like-named read-outs stand apart in the source and are kept apart here.

Assays:
5-HTP hypermotility = experiment: potentiation of 5-HTP hypermotility in mice; assay type: in vivo, male mouse CD1 (Charles River); settings: 30 min after 5-HTP 150 mg/kg i.p., motility 45th-75th minute
Description: The effectiveness of the compounds of the present invention in blocking serotonine uptake also was shown using the potentiation test of 5-hydroxy tryptophane (5-HTP).
1, 11-1972. This test consists of looking for the potentiation of the hypermotility induced by 5-HTP. for high dosages the precursor will induce very characteristic hypermotility with jumps.
The animals are divided into groups of 25 mice and treated i.p. with 150 mg/kg of 5-HTP. The products to be tested are administered sub-cutaneously, 30 minutes after the 5-HTP, the control group receiving only the administrative vehicle. The overall motility of the animals is measured from the 45th to the 75th minute after (administration of) the 5-HTP. The results for the treated groups are shown in % increase in motility with respect to the control group.

[1] = acute toxicity in mice (LD50); assay type: in vivo, male mouse CD1 (Charles River); settings: mouse, in vivo, male CD1 mice, three days' observation
Description: (§1) The toxicity and acute symptomatologies of the compounds of the invention were determined in the male mouse CD1 (Charles River) in intravenous and oral manner. The LD50 were computed following three days' observation by the cumulative method of Reed & Muench (Am. J. Hyg. 27, 493, 1938).

[2] = test system: noradrenaline (NA) recapture by brain synaptosomes; experiment: in vitro inhibition of noradrenaline uptake (recapture) by rat-brain synaptosomes; assay type: biochemical; settings: read-out: I50, dose inhibiting 50% of recapture by brain synaptosomes of noradrenaline (NA)
From the text: (§2) The entire disclosure of Kannengiesser et al is relied on in this connection and incorporated herein by reference.

[3] = test system: dopamine (DA) recapture by brain synaptosomes; experiment: in vitro inhibition of dopamine uptake (recapture) by rat-brain synaptosomes; assay type: biochemical; settings: read-out: I50, dose inhibiting 50% of recapture by brain synaptosomes of dopamine (DA)
From the text: as §2

mice = experiment: acute toxicity in mice (LD50); assay type: in vivo, male mouse CD1 (Charles River); settings: intravenous, male CD1 mice, three days' observation; 4320 min
Description: as §1

[4] = test system: serotonin (5HT) recapture by brain synaptosomes; experiment: in vitro inhibition of serotonin uptake (recapture) by rat-brain synaptosomes; assay type: biochemical; settings: for selectivity of action on cerebral serotonin: in words; for pIC50: rat-brain synaptosomes, 5HT, read-out: I50, dose inhibiting 50% of recapture by brain synaptosomes of serotonin (5HT)
From the text: as §2

[5] = intravenous, read-out: LD50 I.V.

With `CN(C)CCCN1c2ccccc2CCc2ccc(Cl)cc21` [Clomipramine, reference compound] the “Potentiation of 5-HTP hypermotility, % change with respect to controls” value (“Potentiation … % change with respect to controls” for short) (5-HTP hypermotility; 15 mg/kg s.c.) was “+190%”, the LD50 at 72 h [1, 5] was 45 mg/kg and the LD50 at 72 h ([1]; oral, read-out: LD50 orally) was 380 mg/kg. For the same compound, the pIC50 [2] was 5.15 and the pIC50 [3] was 5.30.
In the case of `O=C(CC1CCNCC1)c1c[nH]c2ccccc12` [Example 1, INDOLYL-3 (PIPERIDYL-4 METHYL) KETONE], the “LD50 I.V.” value (mice) was 47 mg/kg, the pIC50 [2] was 4.70 and the pIC50 [3] was 4.19. For the same compound, the “selectivity of action on cerebral serotonin” value (shortened to “selectivity of action”) [4] was “act more selectively than clomipramine” and the pIC50 [4] was 7.10.
For `COc1ccc2[nH]cc(C(=O)CC3CCNCC3)c2c1` [Example 2, (METHOXY-5 INDOLYL-3) (PIPERIDYL-4 METHYL) KETONE], the LD50 at 72 h [1, 5] was 44 mg/kg, the LD50 at 72 h ([1]; oral, read-out: LD50 orally) was over 900 mg/kg and the pIC50 [2] was 3.80. It also gave a pIC50 [3] of 4.15 and a pIC50 [4] of 6.19.
In the case of `O=C(CC1CCNCC1)c1c[nH]c2ccc(Cl)cc12` [Example 3, (CHLORO-5 INDOLYL-3) (PIPERIDYL-4 METHYL) KETONE], the LD50 at 72 h ([1]; oral, read-out: LD50 orally) was 300 to 900 mg/kg, the pIC50 [2] was 4.52 and the pIC50 [3] was 4.92. It also gave a pIC50 [4] of 6.22.
For `Cn1cc(CCC2CCNCC2)c2ccccc21` [Example 9, [(METHYL-1 INDOLYL-3)-2 ETHYL]-4 PIPERIDINE], the “Potentiation … % change with respect to controls” value (5-HTP hypermotility; 5 mg/kg s.c.) was “+134%”, the “Potentiation … % change with respect to controls” value (5-HTP hypermotility; 25 mg/kg s.c.) was “+296%” and the LD50 at 72 h [1, 5] was 44 mg/kg. The LD50 at 72 h ([1]; oral, read-out: LD50 orally) was 225 mg/kg, the pIC50 [2] was 4.22 and the pIC50 [3] was 4.22. For the same compound, the “selectivity of action” value [4] was “act more selectively than clomipramine” and the pIC50 [4] was 7.70.
For `c1ccc2c(CCC3CCNCC3)c[nH]c2c1` [Example 10, [(INDOLYL-3)-2 ETHYL]-4 PIPERIDINE], the “Potentiation … % change with respect to controls” value (5-HTP hypermotility; 5 mg/kg s.c.) was “+196%”, the “Potentiation … % change with respect to controls” value (5-HTP hypermotility; 25 mg/kg s.c.) was “+262%” and the LD50 at 72 h [1, 5] was 60 mg/kg. The LD50 at 72 h ([1]; oral, read-out: LD50 orally) was 600 mg/kg, the pIC50 [2] was 5.10 and the pIC50 [3] was 5.40. The “selectivity of action” value [4] was “act more selectively than clomipramine” and the pIC50 [4] was 7.40.
`c1ccc2c(CC3CCNCC3)c[nH]c2c1` [Example 11, (INDOLYL-3 METHYL) -4 PIPERIDINE] gave an LD50 at 72 h [1, 5] of 57 mg/kg, an LD50 at 72 h ([1]; oral, read-out: LD50 orally) of 225 mg/kg and a pIC50 [2] of 5.30. It also gave a pIC50 [3] of 5.40 and a pIC50 [4] of 6.82.
With `c1ccc2c(CCCC3CCNCC3)c[nH]c2c1` [Example 13, [(INDOLYL-3)-3 PROPYL]-4 PIPERIDINE] the pIC50 [2] was 4.89, the pIC50 [3] was 5.26 and the “selectivity of action” value [4] was “act more selectively than clomipramine”. It also gave a pIC50 [4] of 7.40.
